According to PubChem BioAssay (NCI):
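1) Cells in 96-well plates. 2) Compound, 48 h, 5 concentrations. 3) Linear interpolation between surrounding doses. 4) Unreached endpoint = highest concentration. GI50 = concentration required for 50% inhibition of growth. TGI: total growth inhibition.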

Assays:
Assay in all cases: NCI anticancer screen, dose series, 48 h; in the data active = GI50 below about 0.43 µM; inactive = the rest
[1] = system: HS 578T breast
[2] = system: SN12C renal
[3] = system: MCF7 breast
[4] = system: SK-MEL-28 melanoma
[5] = system: MOLT-4 leukemia
[6] = system: U251 CNS
[7] = system: EKVX NSCLC
[8] = system: HOP-62 NSCLC
[9] = system: SF-539 CNS
[10] = system: HL-60(TB) leukemia
[11] = system: M14 melanoma
[12] = system: DU-145 prostate
[13] = system: HCT-116 colon
[14] = system: IGROV1 ovarian
[15] = system: RPMI-8226 leukemia
[16] = system: BT-549 breast
[17] = system: MDA-MB-231 breast
[18] = system: SF-268 CNS
[19] = system: 786-0 renal
[20] = system: PC-3 prostate
[21] = system: RXF 393 renal
[22] = system: UACC-62 melanoma
[23] = system: HT29 colon
[24] = system: NCI-H226 lung
[25] = system: OVCAR-3 ovarian
[26] = system: SF-295 CNS
[27] = system: SK-MEL-5 melanoma
[28] = system: SK-MEL-2 melanoma
[29] = system: ACHN renal
[30] = system: A498 renal
[31] = system: MDA-MB-435
[32] = system: SNB-75 CNS
[33] = system: OVCAR-5 ovarian
[34] = system: NCI/ADR-RES ovarian
[35] = system: SW-620 colon
[36] = system: SNB-19 CNS
[37] = system: KM12 colon
[38] = system: SK-OV-3 ovarian
[39] = system: CCRF-CEM leukemia
[40] = system: K-562 leukemia
[41] = system: TK-10 renal
[42] = system: NCI-H460 lung
[43] = system: CAKI-1 renal
[44] = system: T-47D breast
[45] = system: NCI-H522 lung
[46] = system: HCC-2998 colon
[47] = system: UO-31 renal
[48] = system: HCT-15 colon
[49] = system: LOX IMVI melanoma
[50] = system: COLO 205 colon
[51] = system: OVCAR-8 ovarian
[52] = system: SR leukemia
[53] = system: A549 NSCLC
[54] = system: HOP-92 NSCLC
[55] = system: NCI-H23 lung
[56] = system: UACC-257 melanoma
[57] = system: OVCAR-4 ovarian
[58] = system: MALME-3M melanoma

CC(=O)OC1Oc2ccc(C)cc2-c2oc(=O)c(-c3cc4ccccc4oc3=O)cc21 (stereo not drawn)
8.16 µM: TGI [51]
21 µM: TGI [33]
7.69 µM: TGI [43]
5.67 µM: TGI [17]
3.61 µM: TGI [54]
8.57 µM: TGI [38]
37.7 µM: TGI [14]
2.04 µM: TGI [52]
8.54 µM: TGI [20]
18.1 µM: TGI [34]
15.7 µM: TGI [50]
40.7 µM: TGI [28]
3.08 µM: TGI [10]
2.7 µM: TGI [31]
6.21 µM: TGI [9]
5.42 µM: TGI [39]
2.41 µM: TGI [15]
12.8 µM: TGI [8]
8.15 µM: TGI [25]
27.1 µM: TGI [4]
14.1 µM: TGI [40]
9.19 µM: TGI [22]
8.09 µM: TGI [1]
3.99 µM: TGI [5]
8.86 µM: TGI [16]
34.6 µM: TGI [45]
25.5 µM: TGI [36]
inactive: GI50 [2] 2.77 µM | GI50 [3] 1.98 µM | GI50 [4] 5.84 µM | GI50 [5] 1.8 µM | GI50 [6] 2.67 µM | GI50 [7] 6.02 µM | GI50 [8] 3.77 µM | GI50 [9] 2.07 µM | GI50 [10] 0.822 µM | GI50 [11] 1.2 µM | GI50 [12] 1.92 µM | GI50 [13] 2.08 µM | GI50 [14] 4 µM | GI50 [15] 0.943 µM | GI50 [16] 3.03 µM | GI50 [17] 1.83 µM | GI50 [18] 3.27 µM | GI50 [19] 1.92 µM | GI50 [20] 2.13 µM | GI50 [21] 3.01 µM | GI50 [22] 2.57 µM | GI50 [23] 2.08 µM | GI50 [24] 4.61 µM | GI50 [25] 1.19 µM | GI50 [26] 2.13 µM | GI50 [27] 2.67 µM | GI50 [28] 8.14 µM | GI50 [29] 3.06 µM | GI50 [30] 0.612 µM | GI50 [31] 0.985 µM | GI50 [32] 2.88 µM | GI50 [33] 3.38 µM | GI50 [34] 2.54 µM | GI50 [35] 6.05 µM | GI50 [36] 3.82 µM | GI50 [37] 1.43 µM | GI50 [38] 1.8 µM | GI50 [39] 1.38 µM | GI50 [40] 2.1 µM | GI50 [41] 1.47 µM | GI50 [42] 2.64 µM | GI50 [43] 2.56 µM | GI50 [44] 1.5 µM | GI50 [45] 8.96 µM | GI50 [46] 2.43 µM | GI50 [47] 7.9 µM | GI50 [48] 1.87 µM | GI50 [49] 1.2 µM | GI50 [50] 2.77 µM | GI50 [51] 3.8 µM | GI50 [52] 0.571 µM | GI50 [53] 4.55 µM | GI50 [54] 1.12 µM | GI50 [55] 2.82 µM | GI50 [56] 8.52 µM
29.9 µM: TGI [35]
11.4 µM: TGI [29]
29.8 µM: TGI [47]
17.8 µM: TGI [42]
27.4 µM: TGI [56]
active: GI50 [1] 0.142 µM
34 µM: TGI [23]
12.2 µM: TGI [18]
14.4 µM: TGI [32]
9.89 µM: TGI [2]
11.6 µM: TGI [27] | TGI [48]
8.1 µM: TGI [12]
5.94 µM: TGI [37]
7.93 µM: TGI [41]
7.74 µM: TGI [19]
9.33 µM: TGI [46]
16.5 µM: TGI [24]
14.3 µM: TGI [21]
4.07 µM: TGI [30]
2.78 µM: TGI [11]
26.8 µM: TGI [6]
6.08 µM: TGI [44]
20.8 µM: TGI [53]
23.8 µM: TGI [7]
13 µM: TGI [26]
12 µM: TGI [55]
7.01 µM: TGI [3]
3.71 µM: TGI [49]
8.62 µM: TGI [13]

Oc1ccc(CCl)c2cccnc12
17.7 µM: TGI [10]
53.6 µM: TGI [52]
91.3 µM: TGI [1]
5.5 µM: TGI [25]
31.6 µM: TGI [7]
> 100 µM: TGI [2] | TGI [4] | TGI [5] | TGI [6] | TGI [8] | TGI [9] | TGI [11] | TGI [12] | TGI [13] | TGI [15] | TGI [16] | TGI [57] | TGI [17] | TGI [18] | TGI [19] | TGI [20] | TGI [21] | TGI [22] | TGI [23] | TGI [24] | TGI [28] | TGI [29] | TGI [30] | TGI [32] | TGI [33] | TGI [35] | TGI [36] | TGI [37] | TGI [38] | TGI [39] | TGI [40] | TGI [41] | TGI [44] | TGI [45] | TGI [46] | TGI [47] | TGI [48] | TGI [49] | TGI [50] | TGI [51] | TGI [53] | TGI [55] | TGI [56]
36 µM: TGI [58]
inactive: GI50 [1] 6.94 µM | GI50 [2] 12.5 µM | GI50 [4] 59 µM | GI50 [5] 3.96 µM | GI50 [6] 7.7 µM | GI50 [7] 3.21 µM | GI50 [8] 16 µM | GI50 [9] 14.5 µM | GI50 [10] 1.36 µM | GI50 [11] 3.2 µM | GI50 [12] 15.7 µM | GI50 [13] 3.29 µM | GI50 [15] 4.25 µM | GI50 [16] 32.4 µM | GI50 [57] 3.41 µM | GI50 [17] 6.07 µM | GI50 [18] 6.84 µM | GI50 [19] 37.7 µM | GI50 [20] 12.3 µM | GI50 [21] 32.9 µM | GI50 [58] 4.44 µM | GI50 [22] 8.37 µM | GI50 [23] 9.68 µM | GI50 [24] 34.6 µM | GI50 [25] 2.08 µM | GI50 [26] 3.72 µM | GI50 [27] 12.4 µM | GI50 [28] > 100 µM | GI50 [29] 6.88 µM | GI50 [30] 46.5 µM | GI50 [31] 5.81 µM | GI50 [32] 44 µM | GI50 [33] 17.5 µM | GI50 [34] 2.98 µM | GI50 [35] 4.12 µM | GI50 [36] 22.9 µM | GI50 [37] 11.3 µM | GI50 [38] 43.8 µM | GI50 [39] 4.1 µM | GI50 [40] 3.39 µM | GI50 [41] > 100 µM | GI50 [42] 3.95 µM | GI50 [43] 5.91 µM | GI50 [44] 3.65 µM | GI50 [45] 3.62 µM | GI50 [46] 33.5 µM | GI50 [47] 2.9 µM | GI50 [48] 3.8 µM | GI50 [49] 4.9 µM | GI50 [50] 7.05 µM | GI50 [51] 4.93 µM | GI50 [52] 3.43 µM | GI50 [53] 14.3 µM | GI50 [54] 14.5 µM | GI50 [55] 6.13 µM | GI50 [56] 4.21 µM
16 µM: TGI [42]
28.9 µM: TGI [34]
35.6 µM: TGI [27]
90 µM: TGI [54]
25.8 µM: TGI [26]
53.3 µM: TGI [43]
95.3 µM: TGI [31]

ClCCN1CCOC1=C1C=CC=C1
40.4 µM: TGI [52]
> 100 µM: TGI [1] | TGI [2] | TGI [3] | TGI [4] | TGI [5] | TGI [6] | TGI [7] | TGI [8] | TGI [9] | TGI [10] | TGI [11] | TGI [12] | TGI [13] | TGI [14] | TGI [15] | TGI [16] | TGI [17] | TGI [18] | TGI [19] | TGI [20] | TGI [23] | TGI [24] | TGI [25] | TGI [26] | TGI [27] | TGI [29] | TGI [30] | TGI [31] | TGI [32] | TGI [33] | TGI [34] | TGI [35] | TGI [36] | TGI [37] | TGI [38] | TGI [39] | TGI [42] | TGI [43] | TGI [44] | TGI [47] | TGI [48] | TGI [49] | TGI [50] | TGI [51] | TGI [53] | TGI [54] | TGI [55] | TGI [56]
